Source: patent US20220389379A1, “PRIMARY BREAST EPITHELIAL CELL CULTURE MEDIUM, CULTURE METHOD AND USE THEREOF” (PRECEDO PHARMACEUTICALS CO., LTD, priority 2019, published 2022)
Like-named read-outs stand apart in the source and are kept apart here.

How the values were obtained:
[1] = system: primary breast tumor epithelial cells isolated from breast cancer tissues (HMFL-XN1, HMFL-XN3, HMFL-XN4, HMFL-XN6, HMFL-XN8); assay: Optimization of primary breast epithelial cell culture medium: cell count after culture with medium additives; format: cell-based, human; set-up: key: +: compared with the basis medium, the medium added with the additive(s) can promote the proliferation of primary breast tumor epithelial cells isolated from at least three cases of breast cancer tissues; −: the medium added with the additive(s) has the effect of inhibiting proliferation of primary breast tumor epithelial cells isolated from at least two cases of breast cancer tissues; ○: the medium added with this additive(s) has no significant effect on the proliferation of primary breast tumor epithelial cells isolated from at least three cases of breast cancer tissues
Procedure: Matrigel (registered trademark) (manufactured by BD Biosciences) was diluted at 1:100 in serum-free DMEM/F12 medium to prepare an extracellular matrix dilution, which was added to a 48-well culture plate with 200 μl/well to completely cover the bottom of the wells of the culture plate. The resultant was let stand for 1 hour in a 37° C. incubator. After 1 hour, the extracellular matrix dilution was removed to provide a Matrigel-coated plate.
First, a basis medium was prepared. To a commercial DMEM/F-12 medium, GlutaMAX-I (manufactured by Thermo Fisher SCIENTIFIC) was added at the specified concentration (1:100 dilution), human insulin (manufactured by Sigma) was added at a final concentration of 10 μg/ml, ROCK kinase inhibitor Y27632 (manufactured by Sigma) was added at a final concentration of 10 μM, and penicillin-streptomycin (manufactured by Thermo Fisher SCIENTIFIC) was added at a 1:100 dilution ratio, which provides the basis medium.
Next, different types of additives (as shown in Table 1) were added to the basis medium to prepare breast epithelial cell culture mediums containing different supplementary components, and the mediums with different components were added at a volume of 500 μl/well to 48-well plates which were coated with extracellular matrix gel (Matrigel). Breast tumor cells (HMFL-XN1) isolated from breast cancer tissue in step (1) of this Example were inoculated in a Matrigel-coated 48-well culture plate at a cell density of 1×10^4 cells/well, and equal numbers of freshly isolated breast tumor cells (HMFL-XN1) were cultured under different medium formulations at 37° C., under 5% CO2 concentration and 20% oxygen concentration. The medium was renewed every 4 days after the start of the culture. After 10 days of culture, cell counts were performed. As an experiment control, the basis medium without any additives was used. Breast tumor cells isolated from the remaining four breast cancer tissue samples were cultured and counted in the same manner as above.

[2] = system: breast tumor cells (HMFL-XN29); assay: Drug sensitivity functional test, Cell Titer-Glo cell viability; format: cell-based, human; settings: HMFL-XN29, triple-negative patient; 72 hours after administration
Procedure: (§1) 1. Plating of primary breast tumor cells: the single cell suspension of breast tumor cells (HMFL-XN5, HMFL-XN7, HMFL-XN10, HMFL-XN12, and HMFL-XN29) obtained by the same method of the invention according to step (3) of Example 4, was inoculated at a density of 3000-5000 cells/well in a 384-well plate, and the cells were adhered overnight.
(1) The drug storage plates were prepared by gradient dilution method: 10 μL of the drug stock solutions to be tested (the concentration of the drug stock solution was determined based on 2 times of the maximum blood concentration Cmax of the drug in the human body) were respectively taken, and added to 0.5 mL EP tubes containing 20 μL of DMSO; 10 μL of solutions from the above EP tubes were pipetted into second 0.5 mL EP tubes loaded with 20 μL of DMSO, that is, diluting the drugs in a ratio of 1:3. […]
(§2) (3) Test of cell viability: 72 hours after administration, Cell Titer-Glo assay kit (manufactured by Promega) was used to detect the chemiluminescence value of the cultured cells after drug administration. […] The prepared Cell Titer-Glo detection solution was added to each well, and a microplate reader was used to detect the chemiluminescence value after mixing.
(§3) Graphs were made by using Graphpad Prism 7.0 software and the half-inhibition rate IC50 was calculated.

[3] = system: breast tumor cells (HMFL-XN12); assay: as above; format: cell-based; settings: Homo sapiens; HMFL-XN12, HER2-positive patient; 72 hours after administration; read-out: half-inhibitory amount (IC50)
Procedure: as §1
(§4) (1) The drug storage plates were prepared by gradient dilution method: 10 μL of the drug stock solutions to be tested (the concentration of the drug stock solution was determined based on 2 times of the maximum blood concentration Cmax of the drug in the human body) were respectively taken, and added to 0.5 mL EP tubes containing 20 μL of DMSO; 10 μL of solutions from the above EP tubes were pipetted into second 0.5 mL EP tubes loaded with 20 μL of DMSO, that is, diluting the drugs in a ratio of 1:3. The above method was repeated for gradually dilution and 7 concentrations required for dosing were obtained. Different concentrations of drugs were added to the 384-well drug storage plates. Equal volume of DMSO was added to each well of the solvent control group as a control. In this example, the drugs to be tested were epirubicin (manufactured by MCE), lapatinib (manufactured by MCE), docetaxel (manufactured by MCE), and tamoxifen (manufactured by MCE).
(§5) (2) Using a high-throughput automated workstation (purchased from Perkin Elmer), different concentrations of drugs and solvent controls in the 384-well drug storage plates were added to 384-well cell culture plates plated with the breast tumor cells. […]
as §2, §3

[4] = system: breast tumor cells (HMFL-XN7); assay: as above; format: cell-based; settings: Homo sapiens; HMFL-XN7, hormone receptor-positive, HER2 receptor-negative patient; 72 hours after administration; read-out: half-inhibition rate IC50
Procedure: as §1, §4, §5, §2, §3

[5] = additive at the concentration given in Table 1 added to basis medium, cell count after 10 days of culture, compared with basis medium, five breast cancer samples

Molecule	Degree of cell [1, 5]	also measured
Cc1cccc(-c2nn(C(=S)Nc3ccccc3)cc2-c2ccnc3ccccc23)n1 [A8301, reference compound]	+	
Interleukin 6: medium additive (R&D)	−	
CS(=O)(=O)CCNCc1ccc(-c2ccc3ncnc(Nc4ccc(OCc5cccc(F)c5)c(Cl)c4)c3c2)o1 [lapatinib]		drug sensitivity compared with breast tumor cells from other patients [2]: less sensitive; IC50 [3]: 920 nM; IC50 [4]: 2500 nM
Neuregulin 1	+	
CC(=O)N[C@@H](CS)C(=O)O [N-Acetyl Cysteine, reference compound]	−	
Basic fibroblast growth factor: medium additive (R&D)	+	
Human leukemia inhibitory factor: medium additive (Peprotech)	−	
Cholera toxin		Degree of cell [1]: ○
CCCCC[C@H](O)/C=C/[C@H]1[C@H](O)CC(=O)[C@@H]1C/C=C\CCCC(=O)O [Prostaglandin E2, reference compound]	−	
Insulin growth factor1: medium additive (Peprotech)	+	
Hepatocyte growth factor: medium additive (Peprotech)	+	
CC/C(=C(\c1ccccc1)c1ccc(OCCN(C)C)cc1)c1ccccc1 [tamoxifen]		drug sensitivity compared with breast tumor cells from other patients [2]: less sensitive; IC50 [4]: 980 nM
Oc1ccc(-c2nc(-c3ccncc3)c(-c3ccc(F)cc3)[nH]2)cc1 [SB202190, reference compound]	+	
N[C@@H](Cc1cc(I)c(Oc2ccc(O)c(I)c2)c(I)c1)C(=O)O [Triiodothyronine, reference compound]	○	
Epidermal growth factor: epidermal growth factor (EGF), medium additive (NSDSECPLSHDGYCLHDGVCMYIEALDKYACNCVVGYIGERCQYRDLKWWELR; UniProt P01133 971-1023, looked up)	+	
NC(=O)c1cccnc1 [Nicotinamide, reference compound]	−	
Cc1ccc2c(c1)C(=O)C1(O)CCN(c3ccccc3)C1=N2 (centres unmarked) [Blebbistatin, reference compound]	−	
